Source: patent US20240067617A1 (Albireo AB, priority 2022, published 2024)

Tests used:
hIBAT = target: T1, hIBAT (Homo sapiens, UniProt Q12908); assay: IBAT (h/m) assay: 3H-taurocholic acid uptake in human IBAT-overexpressing cells; format: cell-based; settings: 0.25 μM 3H-taurocholic acid + 5 μM cold taurocholic acid, 20 minutes at 37° C., highest test concentration 10 μM
T1 construct: expressed in transfected cells; kept under Puromycin selection
T1 sequence (Q12908 1-348): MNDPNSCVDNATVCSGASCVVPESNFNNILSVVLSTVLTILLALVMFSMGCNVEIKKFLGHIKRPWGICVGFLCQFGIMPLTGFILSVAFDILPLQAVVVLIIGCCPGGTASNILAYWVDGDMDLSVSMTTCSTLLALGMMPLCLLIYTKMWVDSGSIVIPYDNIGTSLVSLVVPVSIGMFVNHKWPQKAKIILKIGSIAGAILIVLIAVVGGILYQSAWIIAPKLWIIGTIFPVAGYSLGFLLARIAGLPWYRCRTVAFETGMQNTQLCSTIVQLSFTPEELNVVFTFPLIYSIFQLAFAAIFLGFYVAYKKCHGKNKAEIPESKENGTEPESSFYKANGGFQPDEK
Protocol: IBAT (h/m) Assay Protocol
10,000 cells (Human or Mouse IBAT-overexpressing cells) were seeded in 96-wells plate (Corning CLS3809) in 200 μL MEM-alpha medium (Gibco 12571-063) supplemented with 10% FBS (Gibco 10438026) containing Puromycin (Gibco A1113803) (10 μg/mL) and incubated at 37° C. in 5% CO2 for 48 hours. After incubation, media was decanted from the wells and cells were washed two times with 300 μL of basal MEM-alpha medium (FBS-free). After decanting basal MEM-alpha medium each time, plates were tapped against paper towel to ensure maximum removal of residual media. Test inhibitor dilutions (highest test concentration being 10 μM, 3-fold serial dilution, 10 points) prepared in DMSO (Sigma D2650) were added in incubation mix (maintaining 0.2% final DMSO concentration) containing 0.25 μM 3H-taurocholic acid (ARC ART-1368) and 5 μM of cold taurocholic acid (Sigma T4009). 50 μL of incubation mix containing test inhibitors was then added to the wells (in duplicate) and the plates were incubated for 20 minutes in a CO2 incubator at 37° C. After incubation, the reaction was stopped by keeping the plates on ice water mix for 2-3 minutes and then the incubation mix was aspirated completely from the wells. The wells were washed two times with 250 μL of chilled unlabelled 1 mM taurocholic acid dissolved in HEPES (Gibco 15630080)-buffered (10 mM) HBSS (Gibco 14175079) (pH 7.4). The plates were tapped against a paper towel after every wash to ensure maximum removal of blocking buffer.
(§1) 100 μL of MicroScint-20 (PerkinElmer 6013621) was added to the wells and kept overnight at RT before reading the plates in TopCount NXT™ Microplate Scintillation and Luminescence Counter from PerkinElmer under 3H Test protocol (set at 120 seconds reading time per well).
(§2) Preparation of Test Compound Dilutions
(§3) All test compounds were provided in powder form at RT. 10 mM DMSO stocks of the test compounds were prepared, aliquoted and stored at −20° C. From the 10 mM DMSO stock of the compounds, a 3-fold serial dilution in DMSO was prepared to get a total of 10 dilutions of the test compounds. 0.5 μL of this dilution in DMSO was added to 250 μL of FBS-free basal media containing 3H-taurocholic acid and cold taurocholic acid to prepare the incubation mixture.

hLBAT = target: T2, hLBAT (Homo sapiens, UniProt Q14973); assay: LBAT (h/m) assay: 3H-taurocholic acid uptake in human LBAT-overexpressing cells; format: cell-based; settings: 0.3 μM 3H-taurocholic acid + 7.5 μM cold taurocholic acid, 20 minutes at 37° C.
T2 construct: expressed in transfected cells; kept under Geneticin selection
T2 sequence (Q14973 1-349): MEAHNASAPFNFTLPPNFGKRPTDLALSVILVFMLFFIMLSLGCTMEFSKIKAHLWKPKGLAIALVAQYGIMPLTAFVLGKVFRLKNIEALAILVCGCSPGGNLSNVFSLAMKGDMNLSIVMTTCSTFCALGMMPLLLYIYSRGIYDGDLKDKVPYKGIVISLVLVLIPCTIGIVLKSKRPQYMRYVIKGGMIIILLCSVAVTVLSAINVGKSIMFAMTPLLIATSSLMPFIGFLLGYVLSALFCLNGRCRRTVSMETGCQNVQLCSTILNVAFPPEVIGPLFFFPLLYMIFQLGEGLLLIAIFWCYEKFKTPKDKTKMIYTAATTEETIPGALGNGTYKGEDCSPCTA
Protocol: LBAT (h/m) Assay Protocol
20,000 cells (Human or Mouse LBAT-overexpressing cells) were seeded in 96-wells plate (Corning CLS3809) in 100 μL MEM-alpha medium (Gibco 12571-063) supplemented with 10% FBS (Gibco 10438026) containing Geneticin (Gibco 10131-027) (1 mg/mL) and incubated at 37° C. in 5% CO2 for 24 hours. After incubation, media was decanted from the wells and cells were washed two times with 300 μL of basal MEM-alpha medium (FBS-free). After decanting basal MEM-alpha medium each time, plates were tapped against paper towel to ensure maximum removal of residual media. For human LBAT, incubation mix was prepared by adding test inhibitor dilutions (3-fold serial dilution in DMSO (Sigma D2650), 10 points) in MEM-alpha (without FBS) containing 0.3 μM 3H-taurocholic acid (ARC ART-1368) and 7.5 μM cold taurocholic acid (Sigma T4009) (maintaining 0.2% final DMSO concentration). For mouse LBAT, incubation mix was prepared by adding test inhibitor dilutions (3-fold serial dilution in DMSO, 10 points) in MEM-alpha (without FBS) containing 0.3 μM 3H-taurocholic acid and 25 μM cold taurocholic acid maintaining 0.2% final DMSO concentration). 50 μL of incubation mix containing test inhibitors was then added to the wells (in duplicate) and the plates were incubated for 20 minutes in a CO2 incubator at 37° C. After incubation, the reaction was stopped by keeping the plates on ice water mix for 2-3 minutes and then the incubation mix was aspirated completely from the wells. The wells were washed two times with 250 μL of chilled unlabelled 1 mM taurocholic acid dissolved in HEPES (Gibco 15630080)-buffered (10 mM) HBSS (Gibco 14175079) (pH 7.4). The plates were tapped against a paper towel after every wash to ensure maximum removal of blocking buffer.
as §1, with “well, with normal plate orientation).” for “well).”
as §2, §3

CCCCC1(CCCC)CN(c2ccccc2)c2cc(SC)c(CSCC(=O)O)cc2S(=O)(=O)N1C [Example 22, 2-(((3,3-dibutyl-2-methyl-7-(methylthio)-1,1-dioxido-5-phenyl-2,3,4,5-tetrahydro-1,2,5-benzothiadiazepin-8-yl)methyl)thio)acetic acid]
IC50 (hIBAT): 900 nM
IC50 (hLBAT): > 3330 nM

CCCCC1(CC)CN(c2ccc(F)cc2)c2cc(OC)c(CSC(C)(C)C(=O)O)cc2S(=O)(=O)C1 (single isomer, unassigned) [34, enantiomer 2]
IC50 (hIBAT): 1960 nM
IC50 (hLBAT): 155 nM

CCCCC1(CCCC)CN(c2ccccc2)c2cc(SC)c(CSC(C)(C)C(=O)O)cc2S(=O)(=O)N1C [Example 23, 2-(((3,3-dibutyl-2-methyl-7-(methylthio)-1,1-dioxido-5-phenyl-2,3,4,5-tetrahydro-1,2,5-benzothiadiazepin-8-yl)methyl)thio)-2-methylpropanoic acid]
IC50 (hIBAT): > 3330 nM
IC50 (hLBAT): 145 nM

CCCCC1(CC)CN(c2ccccc2)c2cc(SC)c(CSCC(=O)O)cc2S(=O)(=O)N1 (single isomer, unassigned) [10, enantiomer 1]
IC50 (hIBAT): 0.3 nM
IC50 (hLBAT): > 3330 nM

CCCCC1CN(c2ccccc2)c2cc(SC)c(CSCC(=O)O)cc2S(=O)(=O)N1C (single isomer, unassigned) [12, enantiomer 2]
IC50 (hIBAT): 116 nM
IC50 (hLBAT): 34 nM

CCCCC1(C)CN(c2ccccc2)c2cc(SC)c(CSC(C)(C)C(=O)O)cc2S(=O)(=O)C1 (single isomer, unassigned) [19, enantiomer 1]
IC50 (hIBAT): 192 nM
IC50 (hLBAT): 194 nM

CCCCC1CN(c2ccccc2)c2cc(OC)c(CSC(C)(C)C(=O)O)cc2S(=O)(=O)N1C (racemic) [Example 37, 2-(((3-butyl-7-methoxy-2-methyl-1,1-dioxido-5-phenyl-2,3,4,5-tetrahydro-1,2,5-benzothiadiazepin-8-yl)methyl)thio)-2-methylpropanoic acid]
IC50 (hIBAT): > 10000 nM
IC50 (hLBAT): 21 nM

CCCCC1(C)CN(c2ccccc2)c2cc(OC)c(CSCC(=O)O)cc2S(=O)(=O)N1 (stereo not shown) [Example 53, 2-(((3-butyl-7-methoxy-3-methyl-1,1-dioxido-5-phenyl-2,3,4,5-tetrahydro-1,2,5-benzothiadiazepin-8-yl)methyl)thio)acetic acid]
IC50 (hIBAT): 14 nM
IC50 (hLBAT): > 1000 nM

CCCCC1(CC)CN(c2ccccc2)c2cc(OC)c(CSCC(=O)O)cc2S(=O)(=O)C1 (racemic) [Example 13, 2-(((3-Butyl-3-ethyl-7-methoxy-1,1-dioxido-5-phenyl-2,3,4,5-tetrahydro-1,5-benzothiazepin-8-yl)methyl)thio)acetic acid]
IC50 (hIBAT): 2.3 nM

CCCCC1(CC)CN(c2ccccc2)c2cc(SC)c(CSCC(=O)O)cc2S(=O)(=O)N1C (single isomer, unassigned) [21, enantiomer 2]
IC50 (hIBAT): > 554 nM
IC50 (hLBAT): 1900 nM

CCCCC1(CC)CN(c2ccccc2)c2cc(S(C)(=O)=O)c(CSCC(=O)O)cc2S(=O)(=O)N1 (single isomer, unassigned) [48, enantiomer 2]
IC50 (hIBAT): 5.8 nM
IC50 (hLBAT): > 1000 nM

CCCCC1CN(c2ccccc2)c2cc(OC)c(CSC(C)(C)C(=O)O)cc2S(=O)(=O)N1C (single isomer, unassigned) [38, enantiomer 2]
IC50 (hIBAT): 1600 nM
IC50 (hLBAT): 6.6 nM

CCCCC1(CC)CN(c2ccccc2)c2cc(OC)c(CSCC(=O)O)cc2S(=O)(=O)C1 (single isomer, unassigned) [14, enantiomer 2]
IC50 (hIBAT): 64 nM
IC50 (hLBAT): > 1000 nM

CCCCC1(C)CN(c2ccccc2)c2cc(N(C)C)c(CSCC(=O)O)cc2S(=O)(=O)N1 (stereo not shown) [Example 52, 2-(((3-Butyl-7-(dimethylamino)-3-methyl-1,1-dioxido-5-phenyl-2,3,4,5-tetrahydro-1,2,5-benzothiadiazepin-8-yl)methyl)thio)acetic acid]
IC50 (hIBAT): 7.4 nM
IC50 (hLBAT): > 1000 nM

CCCCC1(CC)CN(c2ccccc2)c2cc(SC)c(CSCC(=O)O)cc2S(=O)(=O)N1 (single isomer, unassigned) [10, enantiomer 2]
IC50 (hIBAT): 1.7 nM

CCCCC1(CC)CN(c2ccc(F)cc2)c2cc(SC)c(CSC(C)(C)C(=O)O)cc2S(=O)(=O)C1 (racemic) [Example 15, 2-(((3-Butyl-3-ethyl-5-(4-fluorophenyl)-7-(methylthio)-1,1-dioxido-2,3,4,5-tetrahydro-1,5-benzothiazepin-8-yl)methyl)thio)-2-methylpropanoic acid]
IC50 (hIBAT): 60 nM
IC50 (hLBAT): 176 nM

CCCCC1CN(c2ccc(F)cc2)c2cc(OC)c(CSCC(=O)O)cc2S(=O)(=O)N1C (single isomer, unassigned) [30, enantiomer 2]
IC50 (hIBAT): 349 nM
IC50 (hLBAT): 200 nM

CCCCC1(CC)CN(c2ccccc2)c2cc(OC)c(CSC(C)(C)C(=O)O)cc2S(=O)(=O)C1 (single isomer, unassigned) [26, enantiomer 2]
IC50 (hIBAT): 5110 nM
IC50 (hLBAT): 245 nM

CCCCC1(C)CN(c2ccccc2)c2cc(OC)c(CSCC(=O)O)cc2S(=O)(=O)C1 (single isomer, unassigned) [28, enantiomer 1]
IC50 (hIBAT): 7.7 nM
IC50 (hLBAT): > 10000 nM

CCCCC1CN(c2ccccc2)c2cc(OC)c(CSCC(=O)O)cc2S(=O)(=O)N1C (racemic) [Example 35, 2-(((3-butyl-7-methoxy-2-methyl-1,1-dioxido-5-phenyl-2,3,4,5-tetrahydro-1,2,5-benzothiadiazepin-8-yl)methyl)thio)acetic acid]
IC50 (hIBAT): 3110 nM
IC50 (hLBAT): 362 nM

CCCCC1(CC)CN(c2ccccc2)c2cc(OC)c(CSCC(=O)O)cc2S(=O)(=O)N1 (single isomer, unassigned) [45, enantiomer 2]
IC50 (hIBAT): 3.2 nM

CCCCC1(CC)CN(c2ccccc2)c2cc(SC)c(CSCC(=O)O)cc2S(=O)(=O)C1 (racemic) [Example 1, 2-(((3-butyl-3-ethyl-7-(methylthio)-1,1-dioxido-5-phenyl-2,3,4,5-tetrahydro-1,5-benzothiazepin-8-yl)methyl)thio)acetic acid]
IC50 (hLBAT): 3820 nM
